According to ChEMBL document CHEMBL1201862, “PubChem BioAssay data set” (2004):
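A five-concentration, 48-hour dose response in 96-well plates underlies each endpoint, interpolated linearly between surrounding concentrations. GI50: concentration for 50% inhibition of growth.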 The source made the active and inactive calls. Cut-off read from the data, not from the text of the source: active = GI50 up to about 1.1 µM and inactive = higher.

Experiments:
Assay in all cases: growth of human tumour cells (NCI), 48 h
PC-3 = system: PC-3
K562 = system: K562
HL-60 = system: HL-60
SK-MEL-2 = system: SK-MEL-2
SK-MEL-28 = system: SK-MEL-28
NCI-H522 = system: NCI-H522
NCI/ADR-RES = system: NCI/ADR-RES
MDA-N = system: MDA-N
NCI-H226 = system: NCI-H226
ACHN = system: ACHN
MOLT-4 = system: MOLT-4
TK-10 = system: TK-10
EKVX = system: EKVX
COLO 205 = system: COLO 205
SF-268 = system: SF-268
UACC-62 = system: UACC-62
Malme-3M = system: Malme-3M
SNB-75 = system: SNB-75
MCF7 = system: MCF7
HOP-62 = system: HOP-62

Measured: GI50

O=c1oc2ccccc2c2nc3ccccc3cc12
inactive: PC-3 56.2 µM | K562 > 100 µM | HL-60 > 100 µM | SK-MEL-2 > 100 µM | SK-MEL-28 > 100 µM | NCI-H522 46.2 µM | NCI/ADR-RES 97.7 µM | MDA-N > 100 µM | NCI-H226 37.4 µM | ACHN 31 µM | MOLT-4 > 100 µM | TK-10 58.7 µM | EKVX 79.8 µM | COLO 205 > 100 µM | SF-268 > 10 µM | UACC-62 35.3 µM | Malme-3M > 100 µM

CC(=O)OCC1OC(n2c(N)c(C#N)c(-c3cccc(Cl)c3)c(C#N)c2=S)C(OC(C)=O)C(OC(C)=O)C1OC(C)=O (stereo unspecified)
inactive: SNB-75 22.2 µM | PC-3 24.9 µM | K562 28.2 µM | HL-60 17.9 µM | SK-MEL-2 19 µM | SK-MEL-28 38.7 µM | NCI/ADR-RES 28.4 µM | MDA-N 19.1 µM | MCF7 21.5 µM | ACHN 29.1 µM | MOLT-4 11.9 µM | TK-10 19.9 µM | EKVX 27.2 µM | COLO 205 16.2 µM | HOP-62 23.3 µM | SF-268 13.3 µM | UACC-62 26.9 µM | Malme-3M 25.2 µM

NC1(c2cc3ccccc3s2)CCCCCC1
inactive: SNB-75 11.1 µM | PC-3 11.7 µM | K562 10.1 µM | HL-60 14.8 µM | SK-MEL-2 10.4 µM | SK-MEL-28 16.7 µM | NCI/ADR-RES 15 µM | MDA-N 16.6 µM | NCI-H226 19.8 µM | MCF7 16.1 µM | ACHN 19.3 µM | MOLT-4 14.1 µM | TK-10 15.4 µM | EKVX 18.7 µM | COLO 205 12.6 µM | HOP-62 14.6 µM | UACC-62 18 µM

COc1ccc(/C=N/Nc2nnc3c(n2)c2ccccc2c2nn(-c4ccccc4Cl)nc23)cc1
inactive: SNB-75 > 100 µM | PC-3 > 100 µM | K562 > 100 µM | SK-MEL-2 > 100 µM | SK-MEL-28 > 100 µM | NCI-H522 > 100 µM | NCI/ADR-RES > 100 µM | MDA-N > 100 µM | NCI-H226 > 100 µM | ACHN > 100 µM | MOLT-4 > 100 µM | TK-10 > 100 µM | EKVX > 100 µM | COLO 205 > 100 µM | HOP-62 > 100 µM | SF-268 > 100 µM | UACC-62 > 100 µM | Malme-3M > 100 µM

Nc1cc(N2CCOCC2)nc(=O)n1-c1ccc(Cl)cc1
inactive: SNB-75 > 100 µM | PC-3 > 100 µM | K562 > 100 µM | HL-60 8.38 µM | SK-MEL-2 > 100 µM | SK-MEL-28 > 100 µM | NCI/ADR-RES > 100 µM | MDA-N > 100 µM | NCI-H226 > 100 µM | MCF7 > 100 µM | ACHN > 100 µM | MOLT-4 > 100 µM | EKVX > 100 µM | COLO 205 > 100 µM | HOP-62 > 100 µM | UACC-62 > 100 µM

CC12CP(=O)(c3ccccc3)CC1c1ccccc1C2c1ccccc1 (stereo unspecified)
inactive: PC-3 12.4 µM | K562 5.9 µM | HL-60 7.52 µM | SK-MEL-2 28 µM | SK-MEL-28 29.4 µM | NCI/ADR-RES 14.2 µM | MDA-N 16.6 µM | NCI-H226 19.7 µM | MCF7 > 100 µM | ACHN 18 µM | MOLT-4 11.4 µM | TK-10 62.2 µM | EKVX 17.9 µM | HOP-62 18.5 µM | SF-268 26.1 µM | UACC-62 29.2 µM | Malme-3M 15.6 µM

NC1CC(=O)c2cc(Br)sc21 (stereo unspecified)
inactive: SNB-75 > 100 µM | PC-3 > 100 µM | K562 > 100 µM | HL-60 > 100 µM | SK-MEL-2 > 100 µM | SK-MEL-28 > 100 µM | NCI/ADR-RES > 100 µM | MDA-N > 100 µM | MCF7 > 100 µM | ACHN > 100 µM | MOLT-4 > 100 µM | TK-10 > 100 µM | EKVX > 100 µM | COLO 205 > 100 µM | HOP-62 > 100 µM | SF-268 > 100 µM | UACC-62 > 100 µM | Malme-3M > 100 µM

N#CSc1[nH]cnc1C(N)=O
inactive: SNB-75 > 100 µM | PC-3 > 100 µM | K562 20 µM | HL-60 2.8 µM | SK-MEL-2 > 100 µM | SK-MEL-28 76.2 µM | NCI-H522 51.4 µM | NCI/ADR-RES > 85.5 µM | MDA-N 22.1 µM | NCI-H226 > 100 µM | ACHN > 100 µM | MOLT-4 > 10 µM | TK-10 > 100 µM | EKVX > 100 µM | COLO 205 > 81.8 µM | HOP-62 > 100 µM | SF-268 > 100 µM | UACC-62 79.6 µM | Malme-3M 17.4 µM

COC(=O)C(=O)C(C(=O)C(=O)Nc1ccc([N+](=O)[O-])cc1[N+](=O)[O-])c1nc2ccc(Cl)cc2nc1O (stereo unspecified)
inactive: SNB-75 16.5 µM | PC-3 > 100 µM | K562 > 100 µM | HL-60 > 100 µM | SK-MEL-2 > 100 µM | SK-MEL-28 > 100 µM | NCI/ADR-RES 87.3 µM | MDA-N > 100 µM | NCI-H226 78.5 µM | MCF7 > 100 µM | ACHN > 100 µM | MOLT-4 > 100 µM | COLO 205 > 100 µM | SF-268 74.1 µM | UACC-62 > 100 µM

Cc1cc([C@H](C#N)c2nc3ccccc3s2)nc(Cl)n1
inactive: SNB-75 2.21 µM | PC-3 3.54 µM | K562 2.75 µM | HL-60 3.67 µM | SK-MEL-2 4.72 µM | SK-MEL-28 6.67 µM | NCI/ADR-RES 3.08 µM | MDA-N 3.55 µM | NCI-H226 3.46 µM | MCF7 4.41 µM | ACHN 9.25 µM | MOLT-4 5.5 µM | TK-10 4.98 µM | EKVX 18.6 µM | COLO 205 2.4 µM | HOP-62 4.66 µM | SF-268 5.01 µM | UACC-62 3.65 µM | Malme-3M 3.81 µM

CC(=O)OCC1OC(n2c(C)c(/N=N/c3ccccc3)c(C)c(C#N)c2=S)C(OC(C)=O)C(OC(C)=O)C1OC(C)=O (stereo unspecified)
inactive: SNB-75 1.85 µM | PC-3 > 100 µM | K562 > 100 µM | HL-60 > 100 µM | SK-MEL-2 24.9 µM | SK-MEL-28 > 100 µM | NCI/ADR-RES 55.3 µM | MDA-N > 100 µM | MCF7 > 100 µM | ACHN > 100 µM | MOLT-4 > 100 µM | TK-10 29 µM | COLO 205 86.3 µM | HOP-62 14.4 µM | SF-268 57.1 µM | UACC-62 14.8 µM | Malme-3M 46.3 µM
